Source: US20180318199A1, “Pharmaceutical Composition Having Anti-Aging Properties against High-Glucose” (TAIWAN LEADER BIOTECH CORP., priority 2017, published 2018)
“Also recorded” adds a separate entry of the source.

Legend:
HO-1 and NQO-1 [1] = assay: Western blot of HO-1 and NQO-1 in HUVECs; type: cell-based, human; details: for NQO-1 expression in HUVECs: western blot, HG
Procedure: The intracellular ROS level is quantified by utilizing DCFH-DA assay. […] However, treatment of HUVECs with ANM resulted reduced ROS levels (6.1-fold), compared with HUVECs in HG that are not treated with ANM. In addition, in FIG. 9G, western blot analysis is performed to determine the protein expression levels of HO-1 and NQO-1.
(§1) Cells are lysed by either RIPA lysis buffer or nuclear and cytoplasmic extraction reagents (Thermo Fisher Scientific). Protein concentrations are determined by Bio-Rad protein assay reagent (Bio-Rad Laboratories, Hercules, Calif.). Equal amounts of protein samples (60 μg) are separated by 7-12% SDS-PAGE and the separated proteins are transferred onto polyvinylidene […] (PVDC) membrane overnight. The transferred protein membranes are blocked with 5% non-fat dried milk for 30 min, followed by incubation with specific primary antibodies overnight, and either horseradish peroxidase-conjugated goat anti-rabbit or anti-mouse antibodies for 2 h. The blots are detected using VL Chemi-Smart 3000 (Viogene Biotek, Sunnyvale, Calif.) with the enhanced chemiluminescence (ECL) western blotting reagent (Millipore, Billerica, Mass.).

HO-1 and NQO-1 [2] = assay: Western blot of HO-1 and NQO-1 in HNDFs; type: cell-based, human; details: ANM 10 μM or NAC 100 μM, 24 h; for HO-1 protein expression: NG and HG groups
Procedure: In FIG. 5D, to determine the protein expression levels of HO-1, NQO-1 and Nrf2, HNDFs are incubated with ANM (10 μM) or NAC (100 μM) for 24 h. Total cell lysates are prepared and subjected to western blot analysis to monitor the expression levels of HO-1, NQO-1 and Nrf2.
as §1

[3] = Cell-free DPPH free-radical scavenging assay; type: biochemical; details: cell-free system
Procedure: Therefore, next to determine whether ANM acts directly as a free-radical scavenger, a cell-free DPPH free-radical scavenging assay is performed. In FIG. 5A, to determine the free-radical scavenging effect of ANM, cell-free DPPH assay is performed.

Nrf2 [4] = assay: Nrf2 nuclear localization by immunofluorescence in HNDFs; type: cell-based, human; details: ANM 10 μM or NAC 100 μM, 2 h
Procedure: Transcriptional activation of Nrf2 is dependent upon the rate of […] followed by disassociation from cytoplasmic Keap-1. In FIG. 5F, to determine the nuclear localization of Nrf2, HNDFs are incubated with ANM (10 μM) or NAC (100 μM) in the presence or absence or HG (30 mM) for 2 h. The protein expression and localization of Nrf2 are measured by immunofluorescence using Nrf2 specific primary antibody and fluorescein isothiocyanate-conjugated secondary antibody (green). The subcellular and nuclear localization of Nrf2 is photographed using a fluoroscence microscope. DAPI (1 μM) is used to stain the nucleus.
HNDFs at a density of 1×10^4 cells/well are cultured in an eight-well glass Nunc Lab-Tek chamber (ThermoFisher Scientific, Waltham, Mass.). Cells are treated with ANM or NAC in the presence or absence of HG for 2-72 h. After incubation, culture medium is removed and cells are fixed in 4% paraformaldehyde for 15 min, permeabilized with 0.1% Triton X-100 for 10 min, washed and blocked with 10% FBS in PBS, and then incubated overnight with the corresponding primary antibodies in 1.5% FBS. […] Next, the cells are stained with 1 μg/mL 4′,6-diamidino-2-phenylindole (DAPI, Cell Signaling Technology) for 5 min, washed with PBS, and visualized using a fluorescence microscope (Motic Electric Group) at 40× magnification.

[5] = test system: p38 MAPK, JNK/SAPK, AKT and ERK1/2; assay: Western blot of MAPK and AKT activation in HNDFs; type: cell-based, human; details: ANM 10 μM or NAC 100 μM + HG 30 mM
Procedure: Next, the possible upstream regulators of p53 activation are examined. Previous studies have shown that p38 MAPK mediated p53 activation in response to intracellular ROS generation. In FIG. 4F, this effect is further extended to its upstream regulator p38 MAPK.
as §1

Nrf2 [6] = assay: ARE luciferase reporter assay (Nrf2 transcriptional activity) in HNDFs; type: cell-based, human; details: 6 h; for relative ARE luciferase activity, co-treated with HG: ANM 10 μM or NAC 100 μM + HG 30 mM, HG alone 2.5-fold; for relative ARE luciferase activity, compound alone: ANM 10 μM or NAC 100 μM, control 1-fold, HG 2.5-fold
Procedure: Therefore, to determine whether ANM augments Nrf2 transcriptional activity, ARE-harboring luciferase reporter assay is used. In FIG. 5E, to determine the Nrf2 transcriptional activity, HNDFs are transiently transfected with ARE promoter construct using lipofectamine and incubated with ANM (10 μM) or NAC (100 μM) in the presence or absence of HG (30 mM) for 6 h. Cell lysates are mixed with luciferase reagents and quantified using an illuminometer. Relative ARE promoter activity is calculated by dividing the relative luciferace unit (RLU) of treated cells by RLU of untreated cells (NG).
Activation of P13K/AKT and mitogen-activated protein kinases (MAPKs), including ERK1/2, JNK/SAPK and p38 MAPK, facilitates Nrf2 transcriptional activation in a variety of human cell lines. […] To elucidate the upstream signaling events involved in ANM-induced Nrf2 transcriptional activity, cells are pre-incubated with pharmacological inhibitors of P13K/AKT (LY294002), ERK1/2 (PD98059), SAPK/JNK (SP600125) and p38MAPK (SB203580) for 2 h and treated with ANM for 6 h in the presence of HG. In FIG. 5G, HNDFs are pre-incubated with AKT, ERK1/2, JNK/SAPK and p38 MAPK inhibitors, including LY294002 (LY, 30 μM), PD98059 (PD, 30 μM), SP600125 (SP, 30 μM) and SB203580 (SB, 30 μM), respectively, for 2 h and then incubated with ANM (10 μM) in the presence of HG (30 mM) for 6 h. Cytoplasmic and nuclear fractions are prepared and subjected to western blot analysis. GAPDH and histone H3 are served as internal controls for the cytoplasmic and nuclear fraction, respectively.
ARE promoter activity is measured using a dual-luciferase reporter assay system (Promega, Madison, Wis.). […] Cells are then transfected with ARE plasmid (Qiagen, Hilden, Germany) using Lipofectamine 2000 (Invitrogen) and incubated for 36 h. […] The cell lysate is prepared and incubated with luciferase agents and the relative luminescence intensity is quantified using a spectrophotometer (Hidex Oy, Turku, Finland).

SMILES	NQO-1 expression in HUVECs (HO-1 and NQO-1 [1])	NQO-1 protein expression (HO-1 and NQO-1 [2])	HO-1 protein expression (HO-1 and NQO-1 [2])	free-radical scavenging effect (DPPH) [3]	Nrf2 expression in the nucleus (Nrf2 [4])	HG-induced JNK/SAPK activation [5]	HG-induced activation of p38 MAPK [5]	HG-mediated decrease in AKT and ERK1/2 activity (phosphorylation) [5]	relative ARE luciferase activity, co-treated with HG (Nrf2 [6]) [fold]	relative ARE luciferase activity, compound alone (Nrf2 [6]) [fold]	HO-1 expression in HUVECs in HG (HO-1 and NQO-1 [1]; ANM 10 μM or RES 5 μM + HG)
CC(=O)N[C@@H](CS)C(=O)O [NAC, N-acetylcysteine, reference compound]	unaffected	unaffected	significantly increase	potent free-radical scavenging effect	elevated Nrf2 expression in the nucleus	significantly prevents	significantly prevents	significantly rescues; also recorded: significantly blocked	8.2	6.3	–
C=C(CCC(C)C1CCC2C3=C(C(=O)C(O)C21C)C1(C)CCC(O)C(C)C1CC3)C(C)C(=O)O (stereo not drawn) [ANM, antcin M]	unaffected	unaffected	significantly increase	fails to scavenge free radicals	elevated Nrf2 expression in the nucleus	significantly prevents	significantly prevents	significantly rescues; also recorded: significantly blocked	8.5	5.8	significantly increase
